Data as given in PubChem BioAssay AID2060891 (Molecular Pharmacology Branch, DTP, NCI, 2025).

Tested on: K98450-129-R-PDC complex spheroid growth, percent test/control
Assay: Anticancer human tumor K98450-129-R-PDC patient-derived colon adenocarcinoma cell line growth inhibition [RAS]
Details: for IC50: curve of first compound; for viability, T/C: stronger effect = lower value
Summary of the method: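 Agents were tested in combination matrices in half-log decrements from a top concentration at or near clinical Cmax (10 microM if undetermined). Targets were multi-cell spheroids of tumour lines plus HUVEC and MSC stromal cells.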

[1] = second compound 0.00316 µM, first compound 0.0316 µM
[2] = second compound 0.00316 µM, first compound 0.1 µM
[3] = second compound 0.00316 µM, first compound 0.316 µM
[4] = second compound 0.00316 µM, first compound 1 µM
[5] = second compound 0.01 µM, first compound 0.0316 µM
[6] = second compound 0.01 µM, first compound 0.1 µM
[7] = second compound 0.01 µM, first compound 0.316 µM
[8] = second compound 0.01 µM, first compound 1 µM
[9] = second compound 0.0316 µM, first compound 0.0316 µM
[10] = second compound 0.0316 µM, first compound 0.1 µM
[11] = second compound 0.0316 µM, first compound 0.316 µM
[12] = second compound 0.0316 µM, first compound 1 µM
[13] = second compound 0.1 µM, first compound 0.0316 µM
[14] = second compound 0.1 µM, first compound 0.1 µM
[15] = second compound 0.1 µM, first compound 0.316 µM
[16] = second compound 0.1 µM, first compound 1 µM
[17] = second compound 0.316 µM, first compound 0.0316 µM
[18] = second compound 0.316 µM, first compound 0.1 µM
[19] = second compound 0.316 µM, first compound 0.316 µM
[20] = second compound 0.316 µM, first compound 1 µM
[21] = second compound 1 µM, first compound 0.0316 µM
[22] = second compound 1 µM, first compound 0.1 µM
[23] = second compound 1 µM, first compound 0.316 µM
[24] = second compound 1 µM, first compound 1 µM
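Further: spheroids exposed to agents for seven days before the viability readout.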
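Wherever viability, T/C is given: luminescence used as a proxy for viable cell amount.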

CC(Nc1ccc2c(c1)OCCn1cc(N3C(=O)OCC3C(F)F)nc1-2)C(N)=O (centres undefined) + C=CC(=O)N1CCN(c2nc(OCC3CCCN3C)nc3c(F)c(-c4nc(N)cc(C)c4C(F)(F)F)c(Cl)cc23)C(C)C1
IC50 (second compound 0.00316 µM): > 10000 nM | IC50 (second compound 0.01 µM): > 10000 nM | IC50 (second compound 0.0316 µM): 4560 nM | IC50 (second compound 0.1 µM): 73.8 nM | IC50 (second compound 0.316 µM): < 31.6 nM | IC50 (second compound 1 µM): < 31.6 nM | viability, T/C [1]: 92.5% | viability, T/C [2]: 90.4% | viability, T/C [3]: 81.7% | viability, T/C [4]: 83.1% | viability, T/C (second compound 0.00316 µM, first compound 3.16 µM): 70% | viability, T/C (second compound 0.00316 µM, first compound 10 µM): 64.3% | viability, T/C [5]: 85.4% | viability, T/C [6]: 81.2% | viability, T/C [7]: 78.5% | viability, T/C [8]: 65.1% | viability, T/C (second compound 0.01 µM, first compound 3.16 µM): 59.8% | viability, T/C (second compound 0.01 µM, first compound 10 µM): 53.8% | viability, T/C [9]: 69.5% | viability, T/C [10]: 70.3% | viability, T/C [11]: 62.7% | viability, T/C [12]: 51.4% | viability, T/C (second compound 0.0316 µM, first compound 3.16 µM): 53.7% | viability, T/C (second compound 0.0316 µM, first compound 10 µM): 46.9% | viability, T/C [13]: 53.9% | viability, T/C [14]: 47.4% | viability, T/C [15]: 45% | viability, T/C [16]: 39% | viability, T/C (second compound 0.1 µM, first compound 3.16 µM): 32.5% | viability, T/C (second compound 0.1 µM, first compound 10 µM): 28.8% | viability, T/C [17]: 35.4% | viability, T/C [18]: 32.5% | viability, T/C [19]: 31.6% | viability, T/C [20]: 22.4% | viability, T/C (second compound 0.316 µM, first compound 3.16 µM): 22.9% | viability, T/C (second compound 0.316 µM, first compound 10 µM): 16.6% | viability, T/C [21]: 28.4% | viability, T/C [22]: 28.2% | viability, T/C [23]: 23.5% | viability, T/C [24]: 18% | viability, T/C (second compound 1 µM, first compound 3.16 µM): 15.3% | viability, T/C (second compound 1 µM, first compound 10 µM): 14.5%

O=C(c1ccc(F)c(F)c1Nc1ccc(I)cc1F)N1CC(O)([C@@H]2CCCCN2)C1 + C=CC(=O)N1CCN(c2nc(OCC3CCCN3C)nc3c(F)c(-c4nc(N)cc(C)c4C(F)(F)F)c(Cl)cc23)C(C)C1
IC50 (second compound 0.00316 µM): 165 nM | IC50 (second compound 0.01 µM): 132 nM | IC50 (second compound 0.0316 µM): 106 nM | IC50 (second compound 0.1 µM): 8.9 nM | IC50 (second compound 0.316 µM): < 3.16 nM | IC50 (second compound 1 µM): < 3.16 nM | viability, T/C (second compound 0.00316 µM, first compound 0.00316 µM): 91.1% | viability, T/C (second compound 0.00316 µM, first compound 0.01 µM): 96.7% | viability, T/C [1]: 87.9% | viability, T/C [2]: 78.3% | viability, T/C [3]: 13.7% | viability, T/C [4]: 2.87% | viability, T/C (second compound 0.01 µM, first compound 0.00316 µM): 86.3% | viability, T/C (second compound 0.01 µM, first compound 0.01 µM): 77.6% | viability, T/C [5]: 81.8% | viability, T/C [6]: 63.1% | viability, T/C [7]: 9.42% | viability, T/C [8]: 3.09% | viability, T/C (second compound 0.0316 µM, first compound 0.00316 µM): 72.8% | viability, T/C (second compound 0.0316 µM, first compound 0.01 µM): 64.5% | viability, T/C [9]: 63.2% | viability, T/C [10]: 52.5% | viability, T/C [11]: 7.27% | viability, T/C [12]: 2.63% | viability, T/C (second compound 0.1 µM, first compound 0.00316 µM): 55.2% | viability, T/C (second compound 0.1 µM, first compound 0.01 µM): 47.6% | viability, T/C [13]: 39% | viability, T/C [14]: 22.6% | viability, T/C [15]: 5.51% | viability, T/C [16]: 2.39% | viability, T/C (second compound 0.316 µM, first compound 0.00316 µM): 34.2% | viability, T/C (second compound 0.316 µM, first compound 0.01 µM): 34.2% | viability, T/C [17]: 21.5% | viability, T/C [18]: 10.9% | viability, T/C [19]: 4.66% | viability, T/C [20]: 2.41% | viability, T/C (second compound 1 µM, first compound 0.00316 µM): 27.9% | viability, T/C (second compound 1 µM, first compound 0.01 µM): 24.1% | viability, T/C [21]: 16.3% | viability, T/C [22]: 9.12% | viability, T/C [23]: 5% | viability, T/C [24]: 2.46%
